Assays:
Format in all cases: in vivo
[1] = tested on: barnyardgrass (Echinochloa crus-galli); test: Test A preemergence soil spray, visual injury rating 0-100; conditions: 10 days
Method in brief: (§1)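 Compound in a non-phytotoxic, surfactant-containing solvent is applied either as a directed soil spray before seedlings emerge or onto emerged plants 2-10 cm tall; pots hold a loam-sand blend. Plants grow 10 days under greenhouse conditions and are rated by eye against untreated controls (0 no effect, 100 complete control).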

[2] = tested on: blackgrass (Alopecurus myosuroides); test: as above; conditions: 10 days
Method in brief: as §1

corn (Zea mays) [3] = test: as above; conditions: 10 days
Method in brief: as §1

[4] = tested on: green foxtail (Setaria viridis); test: as above; conditions: 10 days
Method in brief: as §1

kochia (Bassia scoparia) [5] = test: as above; conditions: 10 days
Method in brief: as §1

[6] = tested on: oat, wild (wild oat, Avena fatua); test: as above; conditions: 10 days
Method in brief: as §1

[7] = tested on: ragweed (common ragweed, Ambrosia artemisiifolia); test: as above; conditions: 10 days
Method in brief: as §1

[8] = tested on: ryegrass, Italian (italian ryegrass, Lolium multiflorum); test: as above; conditions: 10 days
Method in brief: as §1

soybean (Glycine max) [9] = test: as above; conditions: 10 days
Method in brief: as §1

[10] = tested on: wheat (Triticum aestivum); test: as above; conditions: 10 days
Method in brief: as §1

[11] = tested on: barnyardgrass (Echinochloa crus-galli); test: Test A postemergence application, visual injury rating 0-100
Method in brief: as §1

[12] = tested on: blackgrass (Alopecurus myosuroides); test: as above
Method in brief: as §1

corn (Zea mays) [13] = test: as above
Method in brief: as §1

[14] = tested on: galium (catchweed bedstraw, Galium aparine); test: as above
Method in brief: as §1

[15] = tested on: green foxtail (Setaria viridis); test: as above
Method in brief: as §1

[16] = tested on: horseweed (Erigeron canadensis); test: as above
Method in brief: as §1

kochia (Bassia scoparia) [17] = test: as above
Method in brief: as §1

[18] = tested on: oat, wild (wild oat, Avena fatua); test: as above
Method in brief: as §1

[19] = tested on: palmer (palmer amaranth, palmer pigweed, Amaranthus palmeri); test: as above
Method in brief: as §1

[20] = tested on: ragweed (common ragweed, Ambrosia artemisiifolia); test: as above
Method in brief: as §1

[21] = tested on: ryegrass, Italian (italian ryegrass, Lolium multiflorum); test: as above
Method in brief: as §1

soybean (Glycine max) [22] = test: as above
Method in brief: as §1

[23] = tested on: wheat (Triticum aestivum); test: as above
Method in brief: as §1

[24] = tested on: barnyardgrass (Echinochloa crusgalli); test: Test B flooded paddy test, visual plant response rating 0-100; conditions: 250 g ai/ha, Flood, applied to paddy water, evaluated after 13 days
Method in brief: (§2)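 Treatment occurs at the 2-leaf stage by adding compound to floodwater standing 3 cm above the soil, a level kept for the whole test. Plants stay in the greenhouse 13 days before visual comparison with controls.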

[25] = tested on: ducksalad (Heteranthera limosa); test: as above; conditions: 250 g ai/ha, Flood, applied to paddy water, evaluated after 13 days
Method in brief: as §2

rice (Oryza sativa) = test: as above; conditions: 250 g ai/ha, Flood, applied to paddy water, evaluated after 13 days
Method in brief: as §2

[26] = tested on: sedge, umbrella (small-flower umbrella sedge, Cyperus difformis); test: as above; conditions: 250 g ai/ha, Flood, applied to paddy water, evaluated after 13 days
Method in brief: as §2

[27] = 62 g ai/ha, 0 = no effect, 100 = complete control
[28] = 62 g ai/ha, postemergence, 10 days, 0 = no effect, 100 = complete control
[29] = Postemergence, 16 g ai/ha, greenhouse 10 days, 0 no effect, 100 complete control

In the case of `CSCCOC(=O)C1=CCC(NC(=O)C2(C)CN(c3cc(F)cc(Cl)c3)C(=O)O2)C1` (centres unmarked) [Compound 135], the “Barnyardgrass plant response rating” value ([1]; 16 g ai/ha, 0 to 100 scale) is reported as 20, the “Barnyardgrass plant response rating (0-100)” value [1, 27] is reported as 50 and the “Blackgrass plant response rating” value ([2]; 16 g ai/ha, 0 to 100 scale) is reported as 0. For the same molecule, the “Blackgrass plant response rating (0-100)” value [2, 27] was 20, the “Corn plant response rating” value (corn (Zea mays) [3]; 16 g ai/ha, 0 to 100 scale) was 0 and the “Corn plant response rating (0-100)” value (corn (Zea mays) [3]; [27]) was 70. For the same molecule, the “Foxtail, Green plant response rating” value ([4]; 16 g ai/ha, 0 to 100 scale) was 0, the “Foxtail, Green plant response rating (0-100)” value [4, 27] was 80 and the “Kochia plant response rating” value (kochia (Bassia scoparia) [5]; 16 g ai/ha, 0 to 100 scale) was 0. For the same molecule, the “Kochia plant response rating (0-100)” value (kochia (Bassia scoparia) [5]; [27]) was 20, the “Oat, Wild plant response rating” value ([6]; 16 g ai/ha, 0 to 100 scale) was 20 and the “Oat, Wild plant response rating (0-100)” value [6, 27] was 30. The “Ragweed plant response rating” value ([7]; 16 g ai/ha, 0 to 100 scale) was 0, the “Ragweed plant response rating (0-100)” value [7, 27] was 0 and the “Ryegrass, Italian plant response rating” value ([8]; 16 g ai/ha, 0 to 100 scale) was 0. For the same molecule, the “Ryegrass, Italian plant response rating (0-100)” value [8, 27] was 90, the “Soybean plant response rating” value (soybean (Glycine max) [9]; 16 g ai/ha, 0 to 100 scale) was 20 and the “Soybean plant response rating (0-100)” value (soybean (Glycine max) [9]; [27]) was 20. The “Wheat plant response rating” value ([10]; 16 g ai/ha, 0 to 100 scale) was 10, the “Wheat plant response rating (0-100)” value [10, 27] was 90 and the “Barnyardgrass plant response rating (0-100)” value [11, 28] was 100. For the same molecule, the “Barnyardgrass plant response rating (0 to 100 scale)” value [11, 29] was 100, the “Blackgrass plant response rating (0-100)” value [12, 28] was 100 and the “Blackgrass plant response rating (0 to 100 scale)” value [12, 29] was 90. The “Corn plant response rating (0-100)” value (corn (Zea mays) [13]; [28]) was 100, the “Corn plant response rating (0 to 100 scale)” value (corn (Zea mays) [13]; [29]) was 100 and the “Galium plant response rating (0-100)” value [14, 28] was 80. For the same molecule, the “Galium plant response rating (0 to 100 scale)” value [14, 29] was 70, the “Foxtail, Green plant response rating (0-100)” value [15, 28] was 90 and the “Foxtail, Green plant response rating (0 to 100 scale)” value [15, 29] was 90. For the same molecule, the “Horseweed plant response rating (0-100)” value [16, 28] was 90, the “Horseweed plant response rating (0 to 100 scale)” value [16, 29] was 70 and the “Kochia plant response rating (0-100)” value (kochia (Bassia scoparia) [17]; [28]) was 90. For the same molecule, the “Kochia plant response rating (0 to 100 scale)” value (kochia (Bassia scoparia) [17]; [29]) was 90, the “Oat, Wild plant response rating (0-100)” value [18, 28] was 90 and the “Oat, Wild plant response rating (0 to 100 scale)” value [18, 29] was 30. For the same molecule, the “Pigweed, Palmer plant response rating (0-100)” value [19, 28] was 90, the “Pigweed, Palmer plant response rating (0 to 100 scale)” value [19, 29] was 70 and the “Ragweed plant response rating (0-100)” value [20, 28] was 70. For the same molecule, the “Ragweed plant response rating (0 to 100 scale)” value [20, 29] was 40, the “Ryegrass, Italian plant response rating (0-100)” value [21, 28] was 90 and the “Ryegrass, Italian plant response rating (0 to 100 scale)” value [21, 29] was 40. For the same molecule, the “Soybean plant response rating (0-100)” value (soybean (Glycine max) [22]; [28]) was 80, the “Soybean plant response rating (0 to 100 scale)” value (soybean (Glycine max) [22]; [29]) was 60 and the “Wheat plant response rating (0-100)” value [23, 28] was 90. For the same molecule, the “Wheat plant response rating (0 to 100 scale)” value [23, 29] was 80, the “Plant response rating, Barnyardgrass (0 to 100 scale, 0 is no effect and 100 is complete control)” value [24] was 90 and the “Plant response rating, Ducksalad (0 to 100 scale, 0 is no effect and 100 is complete control)” value [25] was 65. For the same molecule, the “Plant response rating, Rice (0 to 100 scale, 0 is no effect and 100 is complete control)” value (rice (Oryza sativa)) was 65 and the “Plant response rating, Sedge, Umbrella (0 to 100 scale, 0 is no effect and 100 is complete control)” value [26] was 95.
